Reference: patent US9650361B2, “N-(pyridin-2-yl)pyrimidin-4-amine derivatives containing a sulfoximine group” (BAYER PHARAM AKTIENGESELLSCHAFT, priority 2012, dated 2017)

What was measured:
CDK9/CycT1 = target: T1, CDK9/CycT1 (Homo sapiens, UniProt P50750); assay: CDK9/CycT1 high ATP kinase assay (Method 1b); type: biochemical; conditions: 2 mM ATP
T1 construct: Recombinant full-length His-tagged human CDK9 and CycT1; His; purchased Invitrogen PV4131; host or cells: insect cells
Experimental: 1b. CDK9/CycT1 High ATP Kinase Assay
CDK9/CycT1-inhibitory activity of compounds of the present invention at a high ATP concentration after preincubation of enzyme and test compounds was quantified employing the CDK9/CycT1 TR-FRET assay as described in the following paragraphs.
Recombinant full-length His-tagged human CDK9 and CycT1, expressed in insect cells and purified by Ni-NTA affinity chromatography, were purchase from Invitrogen (Cat. No PV4131). As substrate for the kinase reaction biotinylated peptide biotin-Ttds-YISPLKSPYKISEG (C-terminus in amid form) was used which can be purchased e.g. form the company JERINI peptide technologies (Berlin, Germany).
For the assay 50 nl of a 100 fold concentrated solution of the test compound in DMSO was pipetted into a black low volume 384 well microtiter plate (Greiner Bio-One, Frickenhausen, Germany), 2 μl of a solution of CDK9/CycT1 in aqueous assay buffer [50 mM Tris/HCl pH 8.0, 10 mM MgCl2, 1.0 mM dithiothreitol, 0.1 mM sodium ortho-vanadate, 0.01% (v/v) Nonidet-P40 (Sigma)] were added and the mixture was incubated for 15 min at 22° C. to allow pre-binding of the test compounds to the enzyme before the start of the kinase reaction. Then the kinase reaction was started by the addition of 3 μl of a solution of adenosine-tri-phosphate (ATP, 3.3 mM=>final conc. in the 5 μl assay volume is 2 mM) and substrate (1.67 μM=>final conc. in the 5 μl assay volume is 1 μM) in assay buffer and the resulting mixture was incubated for a reaction time of 25 min at 22° C. The concentration of CDK9/CycT1 was adjusted depending of the activity of the enzyme lot and was chosen appropriate to have the assay in the linear range, typical concentrations were in the range of 0.5 μg/ml. The reaction was stopped by the addition of 5 μl of a solution of TR-FRET detection reagents (0.2 μM streptavidine-XL665 [Cisbio Bioassays, Codolet, France] and 1 nM anti-RB(pSer807/pSer811)-antibody from BD Pharmingen [#558389] and 1.2 nM LANCE EU-W1024 labeled anti-mouse IgG antibody [Perkin-Elmer, product no. AD0077]) in an aqueous EDTA-solution (100 mM EDTA, 0.2% (w/v) bovine serum albumin in 100 mM HEPES/NaOH pH 7.0).
The resulting mixture was incubated 1 h at 22° C. to allow the formation of complex between the phosphorylated biotinylated peptide and the detection reagents. Subsequently the amount of phosphorylated substrate was evaluated by measurement of the resonance energy transfer from the Eu-chelate to the streptavidine-XL. Therefore, the fluorescence emissions at 620 nm and 665 nm after excitation at 350 nm was measured in a HTRF reader, e.g. a Rubystar (BMG Labtechnologies, Offenburg, Germany) or a Viewlux (Perkin-Elmer). The ratio of the emissions at 665 nm and at […] was taken as the measure for the amount of phosphorylated substrate. The data were normalised (enzyme reaction without inhibitor=0% inhibition, all other assay components but no enzyme=100% inhibition).

HeLa cells = assay: Proliferation assay, HeLa (Method 3); type: cell-based, human; conditions: Homo sapiens, HeLa, 96 h, 4 days, crystal violet; read-out: Inhibition of HeLa cell proliferation IC50
Experimental: Cultivated tumour cells (HeLa, human cervical tumour cells, ATCC CCL-2; NCI-H460, human non-small cell lung carcinoma cells, ATCC HTB-177; A2780, human ovarian carcinoma cells, ECACC #93112519; DU 145, hormone-independent human prostate carcinoma cells, ATCC HTB-81; HeLa-MaTu-ADR, multidrug-resistant human cervical carcinoma cells, EPO-GmbH Berlin; Caco-2, human colorectal carcinoma cells, ATCC HTB-37; B16F10, mouse melanoma cells, ATCC CRL-6475) were plated at a density of 5,000 cells/well (DU145, HeLa-MaTu-ADR), 3,000 cells/well (NCI-H460, HeLa), 2,500 cells/well (A2780), 1,500 cells/well (Caco-2), or 1,000 cells/well (B16F10) in a 96-well multititer plate in 200 μL of their respective growth medium supplemented 10% fetal calf serum. After 24 hours, the cells of one plate (zero-point plate) were stained with crystal violet (see below), while the medium of the other plates was replaced by fresh culture medium (200 μl), to which the test substances were added in various concentrations (0 μM, as well as in the range of 0.001-10 μM; the final concentration of the solvent dimethyl sulfoxide was 0.5%). The cells were incubated for 4 days in the presence of test substances. Cell proliferation was determined by staining the cells with crystal violet: the cells were fixed by adding 20 μl/measuring point of an 11% glutaric aldehyde solution for 15 minutes at room temperature. After three washing cycles of the fixed cells with water, the plates were dried at room temperature. The cells were stained by adding 100 μl/measuring point of a 0.1% crystal violet solution (pH 3.0). After three washing cycles of the stained cells with water, the plates were dried at room temperature. The dye was dissolved by adding 100 μl/measuring point of a 10% acetic acid solution. The extinction was determined by photometry at a wavelength of 595 nm. The change of cell number, in percent, was calculated by normalization of the measured values to the extinction values of the zero-point plate (=0%) and the extinction of the untreated (0 μm) cells (=100%). The IC50 values (inhibitory concentration at 50% of maximal effect) were determined by means of a 4 parameter fit.

T1 sequence (P50750 whole entry): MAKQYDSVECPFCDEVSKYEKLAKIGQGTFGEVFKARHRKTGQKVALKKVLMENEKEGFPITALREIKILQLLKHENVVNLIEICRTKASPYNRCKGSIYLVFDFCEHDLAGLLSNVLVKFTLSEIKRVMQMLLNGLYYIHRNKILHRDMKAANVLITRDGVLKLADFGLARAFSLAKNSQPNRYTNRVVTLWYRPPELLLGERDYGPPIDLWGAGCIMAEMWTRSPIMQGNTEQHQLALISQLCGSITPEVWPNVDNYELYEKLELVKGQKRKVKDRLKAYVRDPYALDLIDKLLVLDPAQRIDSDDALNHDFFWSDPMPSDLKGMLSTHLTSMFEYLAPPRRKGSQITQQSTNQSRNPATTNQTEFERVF
T1 sequence (O60563 whole entry partner): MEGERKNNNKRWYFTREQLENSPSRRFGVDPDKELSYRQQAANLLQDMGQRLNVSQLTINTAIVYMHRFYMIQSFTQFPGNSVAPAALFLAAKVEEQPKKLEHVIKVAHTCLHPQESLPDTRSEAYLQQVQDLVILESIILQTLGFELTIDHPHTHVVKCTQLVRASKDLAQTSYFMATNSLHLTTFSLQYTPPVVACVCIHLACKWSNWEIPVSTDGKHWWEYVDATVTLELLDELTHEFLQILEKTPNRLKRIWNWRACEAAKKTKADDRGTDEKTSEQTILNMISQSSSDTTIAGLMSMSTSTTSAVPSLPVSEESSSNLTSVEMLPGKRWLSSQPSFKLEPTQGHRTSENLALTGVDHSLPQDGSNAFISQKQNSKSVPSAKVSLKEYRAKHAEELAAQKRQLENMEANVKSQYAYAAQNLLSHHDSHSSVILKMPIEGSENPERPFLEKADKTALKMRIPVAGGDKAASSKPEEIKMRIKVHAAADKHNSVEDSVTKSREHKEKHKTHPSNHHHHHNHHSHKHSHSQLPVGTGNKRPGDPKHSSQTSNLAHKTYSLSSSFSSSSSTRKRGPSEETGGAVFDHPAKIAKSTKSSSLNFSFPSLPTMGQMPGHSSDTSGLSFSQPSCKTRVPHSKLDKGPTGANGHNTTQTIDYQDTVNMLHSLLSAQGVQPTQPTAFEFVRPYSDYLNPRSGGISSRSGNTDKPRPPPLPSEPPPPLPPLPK

IC50 (CDK9/CycT1): 194 nM
IC50 (HeLa cells): 338 nM
Compound: CCS(=N)(=O)Cc1ccnc(Nc2cc(-c3ccc(F)cc3OC)ncn2)c1 (racemic) [Example 11, (rac)-N-{4-[(S-Ethylsulfonimidoyl)methyl]pyridin-2-yl}-6-(4-fluoro-2-methoxyphenyl)pyrimidin-4-amine]
